From patent publication US12049450B2, “Pyridyloxy-carboxylate derivative and preparation method therefor, herbicidal composition, and use” (Qingdao Kingagroot Chemical Compound Co., Ltd., priority 2018, dated 2024)

Assays:
Format in all cases: in vivo
rice (japonica rice) = assay: Transplanted rice safety evaluation in rice field soil pot; conditions: 1000 g/ha, 21 days after treatment
Description: (§1) The activity level standard of harmful plants destruction (i. e. growth inhibition rate) is as follows: • Level 5: the growth inhibition rate is greater than 85%; • Level 4: the growth inhibition rate is equal to or greater than 60% and less than 85%; • Level 3: the growth inhibition rate is equal to or greater than 40% and less than 60%; • Level 2: the growth inhibition rate is equal to or greater than 20% and less than 40%; • Level 1: the growth inhibition rate is equal to or greater than 5% and less than 20%; • Level 0: the growth inhibition rate is less than 5%;
(§2) Transplanted rice safety evaluation and weed control effect evaluation in rice field:
In addition, the rice field soil that loaded into the 1/1,000,000 ha pot was leveled to keep water storage at 3-4 cm depth. The 3-leaf stage rice (japonica rice) was transplanted at 3 cm of transplanting depth the next day. The compound of the present invention was treated by the same way after 5 days of transplantation.
(§3) The fertility condition of Monochoria vaginalis 14 days and rice 21 days after the treatment of the compound of the invention with the naked eye.

Monochoria vaginalis [1] = assay: Post-emergence test experiment (greenhouse pot, spray at 2-3 leaf stage); conditions: 1000 g/ha; post-emergence spray at 2-3 leaf stage; assessed after 3 weeks; fresh weight inhibition rate
How it was run: (§4)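 Weed seeds sown in soil-filled pots in greenhouse, sprayed at 2-3 leaf stage (2 weeks after sowing) with compound in acetone/tween-80 plus methyl oleate emulsible concentrate (1.5 L/ha) diluted in water. Fresh-weight growth inhibition scored after 3 weeks on 0-5 scale (5: >85%, 0: <5%).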

Cyperus iria = assay: as above; conditions: post-emergence, after 3 weeks, resistant to ALS inhibitor herbicides
How it was run: as §4

Indica rice = assay: as above; conditions: post-emergence, after 3 weeks
How it was run: (§5)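 Activity graded levels 0-5 by fresh-weight inhibition (level 5 above 85%, level 0 below 5%), assessed 3 weeks after treatment. Plants grown in greenhouse pots were sprayed post-emergence at 2-3 leaves using acetone/tween-80 solutions with methyl oleate synergist (1.5 L/ha).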

Japonica rice = assay: as above; conditions: post-emergence, after 3 weeks
How it was run: as §5

Galium spurium = assay: as above; conditions: 1000 g/ha; post-emergence spray at 2-3 leaf stage; assessed after 3 weeks; fresh weight inhibition rate
How it was run: as §4

Echinochloa crusgalli = assay: as above; conditions: for Activity level (growth inhibition rate) Echinochloa crusgalli: 1000 g/ha, post-emergence spray at 2-3 leaf stage, assessed after 3 weeks, fresh weight inhibition rate; for Echinochloa crusgalli, activity level (growth inhibition rate): post-emergence, after 3 weeks, resistant to ALS inhibitor herbicides
How it was run: as §4

Abutilon theophrasti = assay: as above; conditions: 1000 g/ha; post-emergence spray at 2-3 leaf stage; assessed after 3 weeks; fresh weight inhibition rate
How it was run: as §4

Digitaria sanguinalis = assay: as above; conditions: 1000 g/ha; post-emergence spray at 2-3 leaf stage; assessed after 3 weeks; fresh weight inhibition rate
How it was run: as §4

Monochoria vaginalis [2] = assay: Weed control effect evaluation in rice field soil pot; conditions: paddy pot, 14 days after treatment, resistant to pyrazosulfuron-ethyl and penoxsulam
Description: as §1, §2
Rice field soil was loaded into a 1/1,000,000 ha pot. The seeds of Monochoria vaginalis were sowed and gently covered with soil, then left to stand still in greenhouse in the state of 0.5-1 cm of water storage. It was kept at 3-4 cm of water storage thereafter. The weeds were treated by dripping the WP or SC water diluents prepared according to the common preparation method of the compounds of the present invention with pipette homogeneously to achieve specified effective amount when Monochoria vaginalis reached 0.5 leaf stage.
as §3

Soybean = assay: Spray drift test, application by unmanned gyroplane, soybean field at 10 meters; conditions: 600 g/ha, gyroplane at 1 m, gentle breeze
Experimental: Broadleaf crops are very sensitive to hormonal herbicides, therefore crop injuries are more likely to occur in case of spray drifting. Tests were conducted in gentle breeze for the compounds of the present invention. The formulation of the compounds of the present invention was applied by DJI unmanned gyroplane with application height of 1 m and water volume of 20 kg/ha. The use rate was 600 g/ha. The active ingredient was dissolved by acetone and diluted to aqueous solution of Tween 80. There's a soybean field at 10 meters from the application area and the height of soybean plants were about 15 cm at the application time.

For `Cc1c(F)nc(OC(C)C(=O)OCc2ccccc2)c(C)c1N` (centres unmarked) [Compound 7], the “Rice, safety level” value (rice (japonica rice)) was 0 (Level 0: the growth inhibition rate is less than 5%), the “Activity level (growth inhibition rate) Monochoria Vaginalis” value (Monochoria vaginalis [1]) was 5 (Level 5: the growth inhibition rate is greater than 85%) and the “Cyperus iria, activity level (growth inhibition rate)” value (Cyperus iria; 600 g/ha, from Hunan) was 5 (Level 5: the growth inhibition rate is greater than 85%). For the same compound, the “Indica rice, activity level (growth inhibition rate)” value (Indica rice; 600 g/ha) was 0 (Level 0: the growth inhibition rate is less than 5%), the “Japonica rice, activity level (growth inhibition rate)” value (Japonica rice; 600 g/ha) was 0 (Level 0: the growth inhibition rate is less than 5%) and the “Activity level (growth inhibition rate) Galium spurium” value (Galium spurium) was 5 (Level 5: the growth inhibition rate is greater than 85%). For the same compound, the “Activity level (growth inhibition rate) Echinochloa crusgalli” value (Echinochloa crusgalli) was 5 (Level 5: the growth inhibition rate is greater than 85%), the “Echinochloa crusgalli, activity level (growth inhibition rate)” value (Echinochloa crusgalli; 600 g/ha, from Hunan) was 5 (Level 5: the growth inhibition rate is greater than 85%) and the “Activity level (growth inhibition rate) Abutilon theophrasti” value (Abutilon theophrasti) was 5 (Level 5: the growth inhibition rate is greater than 85%). For the same compound, the “Activity level (growth inhibition rate) Digitaria sanguinalis” value (Digitaria sanguinalis) was 5 (Level 5: the growth inhibition rate is greater than 85%) and the “Monochoria Vaginalis, activity level” value (Monochoria vaginalis [2]; 1000 g/ha) was 5 (Level 5: the growth inhibition rate is greater than 85%).
With `CC(Oc1nc(F)c(Cl)c(N)c1Cl)C(=O)OCc1c(F)ccc(F)c1F` (centres unmarked) [Compound 83] the “Activity level (growth inhibition rate) Monochoria Vaginalis” value (Monochoria vaginalis [1]) was 5 (Level 5: the growth inhibition rate is greater than 85%), the “Activity level (growth inhibition rate) Galium spurium” value (Galium spurium) was 5 (Level 5: the growth inhibition rate is greater than 85%) and the “Activity level (growth inhibition rate) Echinochloa crusgalli” value (Echinochloa crusgalli) was 5 (Level 5: the growth inhibition rate is greater than 85%). For the same compound, the “Activity level (growth inhibition rate) Abutilon theophrasti” value (Abutilon theophrasti) was 5 (Level 5: the growth inhibition rate is greater than 85%), the “Activity level (growth inhibition rate) Digitaria sanguinalis” value (Digitaria sanguinalis) was 5 (Level 5: the growth inhibition rate is greater than 85%) and the “Soybean, injury level by spray drift” value (Soybean) was 0 (Level 0: the growth inhibition rate is less than 5%).
For `CC(Oc1nc(F)c(Cl)c(N)c1Cl)C(=O)SCc1ccc(-c2ccccc2)cc1` (racemic) [Compound 113], the “Activity level (growth inhibition rate) Monochoria Vaginalis” value (Monochoria vaginalis [1]) was 5 (Level 5: the growth inhibition rate is greater than 85%), the “Activity level (growth inhibition rate) Galium spurium” value (Galium spurium) was 5 (Level 5: the growth inhibition rate is greater than 85%) and the “Activity level (growth inhibition rate) Echinochloa crusgalli” value (Echinochloa crusgalli) was 5 (Level 5: the growth inhibition rate is greater than 85%). The “Activity level (growth inhibition rate) Abutilon theophrasti” value (Abutilon theophrasti) was 5 (Level 5: the growth inhibition rate is greater than 85%), the “Activity level (growth inhibition rate) Digitaria sanguinalis” value (Digitaria sanguinalis) was 5 (Level 5: the growth inhibition rate is greater than 85%) and the “Soybean, injury level by spray drift” value (Soybean) was 0 (Level 0: the growth inhibition rate is less than 5%).
With `CC(Oc1nc(F)c(F)c(N)c1F)C(=O)OCc1ccccc1` (centres unmarked) [Compound 1] the “Activity level (growth inhibition rate) Monochoria Vaginalis” value (Monochoria vaginalis [1]) was 5 (Level 5: the growth inhibition rate is greater than 85%), the “Activity level (growth inhibition rate) Galium spurium” value (Galium spurium) was 5 (Level 5: the growth inhibition rate is greater than 85%) and the “Activity level (growth inhibition rate) Echinochloa crusgalli” value (Echinochloa crusgalli) was 5 (Level 5: the growth inhibition rate is greater than 85%). The “Activity level (growth inhibition rate) Abutilon theophrasti” value (Abutilon theophrasti) was 5 (Level 5: the growth inhibition rate is greater than 85%), the “Activity level (growth inhibition rate) Digitaria sanguinalis” value (Digitaria sanguinalis) was 5 (Level 5: the growth inhibition rate is greater than 85%) and the “Soybean, injury level by spray drift” value (Soybean) was 0 (Level 0: the growth inhibition rate is less than 5%).
With `COc1cc(OC)nc(Oc2cccc(Oc3nc(OC)cc(OC)n3)c2C(=O)O)n1` [Bispyribac-sodium, reference compound] the “Cyperus iria, activity level (growth inhibition rate)” value (Cyperus iria; 100 g/ha) was 2 (Level 2: the growth inhibition rate is equal to or greater than 20% and less than 40%), the “Indica rice, activity level (growth inhibition rate)” value (Indica rice; 100 g/ha) was 2 (Level 2: the growth inhibition rate is equal to or greater than 20% and less than 40%) and the “Japonica rice, activity level (growth inhibition rate)” value (Japonica rice; 100 g/ha) was 4 (Level 4: the growth inhibition rate is equal to or greater than 60% and less than 85%). The “Echinochloa crusgalli, activity level (growth inhibition rate)” value (Echinochloa crusgalli; 100 g/ha) was 1 (Level 1: the growth inhibition rate is equal to or greater than 5% and less than 20%).
With `CC(Oc1nc(Cl)c(Cl)c(N)c1Cl)C(=O)OCc1ccccc1` (centres unmarked) [Compound 2] the “Activity level (growth inhibition rate) Monochoria Vaginalis” value (Monochoria vaginalis [1]) was 5 (Level 5: the growth inhibition rate is greater than 85%), the “Activity level (growth inhibition rate) Galium spurium” value (Galium spurium) was 5 (Level 5: the growth inhibition rate is greater than 85%) and the “Activity level (growth inhibition rate) Echinochloa crusgalli” value (Echinochloa crusgalli) was 5 (Level 5: the growth inhibition rate is greater than 85%). For the same compound, the “Activity level (growth inhibition rate) Abutilon theophrasti” value (Abutilon theophrasti) was 5 (Level 5: the growth inhibition rate is greater than 85%), the “Activity level (growth inhibition rate) Digitaria sanguinalis” value (Digitaria sanguinalis) was 5 (Level 5: the growth inhibition rate is greater than 85%) and the “Soybean, injury level by spray drift” value (Soybean) was 0 (Level 0: the growth inhibition rate is less than 5%).
`CC(Oc1ncc(Cl)c(N)c1Cl)C(=O)OCc1ccccc1` (centres unmarked) [Compound 3] was tested, and the “Activity level (growth inhibition rate) Monochoria Vaginalis” value (Monochoria vaginalis [1]) was 5 (Level 5: the growth inhibition rate is greater than 85%), the “Activity level (growth inhibition rate) Galium spurium” value (Galium spurium) was 5 (Level 5: the growth inhibition rate is greater than 85%) and the “Activity level (growth inhibition rate) Echinochloa crusgalli” value (Echinochloa crusgalli) was 5 (Level 5: the growth inhibition rate is greater than 85%). For the same compound, the “Activity level (growth inhibition rate) Abutilon theophrasti” value (Abutilon theophrasti) was 5 (Level 5: the growth inhibition rate is greater than 85%), the “Activity level (growth inhibition rate) Digitaria sanguinalis” value (Digitaria sanguinalis) was 5 (Level 5: the growth inhibition rate is greater than 85%) and the “Soybean, injury level by spray drift” value (Soybean) was 0 (Level 0: the growth inhibition rate is less than 5%).
In the case of `CC(Oc1nc(F)c(Cl)c(N)c1Cl)C(=O)OCc1cc(C(F)(F)F)ccc1F` (centres unmarked) [Compound 82], the “Activity level (growth inhibition rate) Monochoria Vaginalis” value (Monochoria vaginalis [1]) is reported as 5 (Level 5: the growth inhibition rate is greater than 85%), the “Activity level (growth inhibition rate) Galium spurium” value (Galium spurium) is reported as 5 (Level 5: the growth inhibition rate is greater than 85%) and the “Activity level (growth inhibition rate) Echinochloa crusgalli” value (Echinochloa crusgalli) is reported as 5 (Level 5: the growth inhibition rate is greater than 85%). The “Activity level (growth inhibition rate) Abutilon theophrasti” value (Abutilon theophrasti) was 5 (Level 5: the growth inhibition rate is greater than 85%), the “Activity level (growth inhibition rate) Digitaria sanguinalis” value (Digitaria sanguinalis) was 5 (Level 5: the growth inhibition rate is greater than 85%) and the “Soybean, injury level by spray drift” value (Soybean) was 0 (Level 0: the growth inhibition rate is less than 5%).
With `COC(Oc1nc(F)c(Cl)c(N)c1Cl)C(=O)SCc1ccccc1` (centres unmarked) [Compound 50] the “Activity level (growth inhibition rate) Monochoria Vaginalis” value (Monochoria vaginalis [1]) was 5 (Level 5: the growth inhibition rate is greater than 85%), the “Activity level (growth inhibition rate) Galium spurium” value (Galium spurium) was 5 (Level 5: the growth inhibition rate is greater than 85%) and the “Activity level (growth inhibition rate) Abutilon theophrasti” value (Abutilon theophrasti) was 5 (Level 5: the growth inhibition rate is greater than 85%). The “Soybean, injury level by spray drift” value (Soybean) was 0 (Level 0: the growth inhibition rate is less than 5%).
`CC(Oc1nc(F)c(Cl)c(NCc2ccco2)c1Cl)C(=O)OCc1ccccc1` (centres unmarked) [Compound 193] was tested, and the “Activity level (growth inhibition rate) Monochoria Vaginalis” value (Monochoria vaginalis [1]) was 5 (Level 5: the growth inhibition rate is greater than 85%), the “Activity level (growth inhibition rate) Galium spurium” value (Galium spurium) was 5 (Level 5: the growth inhibition rate is greater than 85%) and the “Activity level (growth inhibition rate) Echinochloa crusgalli” value (Echinochloa crusgalli) was 5 (Level 5: the growth inhibition rate is greater than 85%). For the same compound, the “Activity level (growth inhibition rate) Abutilon theophrasti” value (Abutilon theophrasti) was 5 (Level 5: the growth inhibition rate is greater than 85%), the “Activity level (growth inhibition rate) Digitaria sanguinalis” value (Digitaria sanguinalis) was 5 (Level 5: the growth inhibition rate is greater than 85%) and the “Soybean, injury level by spray drift” value (Soybean) was 0 (Level 0: the growth inhibition rate is less than 5%).
For `COc1cnc(OC)n2nc(NS(=O)(=O)c3c(OCC(F)F)cccc3C(F)(F)F)nc12` [Penoxsulam, reference compound], the “Monochoria Vaginalis, activity level” value (Monochoria vaginalis [2]; 50 g/ha) was 1 (Level 1: the growth inhibition rate is equal to or greater than 5% and less than 20%).
